Here are results for one molecule from ChEMBL document CHEMBL2010739, “Antiproliferative activity of trans-avicennol from Zanthoxylum chiloperone var. angustifolium against human cancer stem cells” (J Nat Prod, 2012).

The nature of data set [1]: Antiproliferative activity against human NSC-24 cells at 34.2 ug/ml to 100 uM by WST-1 assay. Type of data set: cell-based.
Data set [2] is described as follows: Antiproliferative activity against human TG10 cells at 34.2 ug/ml by WST-1 assay. Type of data set: functional.
Data set [3] in a line: Antiproliferative activity against human TG1 cells at 34.2 ug/ml by WST-1 assay. In kind it is functional.
A further data set relates to TG1. Briefly: Induction of Erk phosphorylation in human TG1 cells at 100 uM after 30 mins by Western blot analysis. In kind it is cell-based.
A further data set deals with NSC-24. In words: Inhibition of Erk phosphorylation in human NSC-24 cells at 100 uM after 30 mins by Western blot analysis. Type of data set: cell-based.
Data set [4] has as its target Indoleamine 2,3-dioxygenase 1 (Homo sapiens, UniProt P14902). Briefly: Competitive inhibition of human indoleamine 2,3-dioxygenase assessed as conversion of N-formylkynurenine to kynurenine after 2 hrs by spectrophotometrical analysis.

Active and inactive are the calls of the source. The rule behind the calls is not given here.

Sequence of Indoleamine 2,3-dioxygenase 1 (P14902 whole entry): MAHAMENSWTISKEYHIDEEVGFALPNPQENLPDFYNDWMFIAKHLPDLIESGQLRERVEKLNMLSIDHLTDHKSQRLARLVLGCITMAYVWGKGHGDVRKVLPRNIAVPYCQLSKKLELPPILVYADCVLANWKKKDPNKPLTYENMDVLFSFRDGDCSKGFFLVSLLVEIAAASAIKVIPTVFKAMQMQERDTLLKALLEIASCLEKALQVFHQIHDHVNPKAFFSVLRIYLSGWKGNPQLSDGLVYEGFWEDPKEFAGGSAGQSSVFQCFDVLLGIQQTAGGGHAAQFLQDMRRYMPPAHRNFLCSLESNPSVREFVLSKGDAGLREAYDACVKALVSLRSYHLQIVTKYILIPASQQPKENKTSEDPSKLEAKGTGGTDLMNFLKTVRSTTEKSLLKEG

For `COc1c2c(c3ccc(=O)oc3c1/C=C/C(C)(C)O)OC(C)(C)C=C2` [AVICENNOL], the Activity result in data set [1] is “Non-toxic”; in data set [2], 40%; in data set [3], 35%. In addition, the outcome in the data set with TG1 was Active. Besides, the inhibition result with NSC-24 is “Active”. Besides, in data set [4], the Ki amounted to 635 µM.
